Results published in patent publication US12329160B2, “Activated ferrate compositions” (THE TEXAS A & M UNIVERSITY SYSTEM, priority 2018, dated 2025).

What was measured:
[1] = Oxidation of individual organic contaminants by Fe^VI with or without S2O3^2− in buffered ultrapure water, HPLC; format: physicochemical; settings: for partial oxidation by Fe^VI without S2O3^2−: ratio 25:1 [Fe^VI]:[contaminants], Fe^VI 100.0 μM, pH 8.00, 30 seconds
Procedure: To test liquid ferrate solutions using second approach, batch experiments were conducted in a series of 100 mL glass jars under constant stirring rate (400 rpm) with a magnetic stirrer. Oxidation of each micropollutant or their mixtures by Fe^VI with or without S2O3^2− was initiated by mixing equal solution volumes of 10 mL, and the final reaction solutions were kept at 8.00±0.04.
(§1) The stock solutions of these contaminants (10.0 μM) were prepared in 10.0 mM Na2HPO4, and diluted using the same buffer solution before the removal experiments. […] Solutions of Fe^VI were prepared by adding K2FeO4 powders to 5.0 mM Na2HPO4/1.0 mM Na2B4O7.10H2O buffer solution. The concentrations of Fe^VI were quantitatively measured using an UV-visible spectrometer at a wavelength of 510 nm with a molar absorption coefficient of ε510 nm=1150 M^−1 cm^−1: The pH value of the contaminant solutions was adjusted to 7.50 via the addition of diluted H3PO4 before mixing with Fe^VI solution to achieve the desired reaction pH at 8.00±0.04. Methanol and phosphoric acid (85%) of high performance liquid chromatography (HPLC) grade were used in testing. 5,5-dimethyl-1-pyrroline-N-oxide (DMPO) was used as the spin trap reagent for identifying the possible reactive inorganic radicals (e.g., .OH and/or SO4.^−) in the oxidation system. All the other chemicals (e.g., hydroxylamine and permanganate) were provided from commercial sources and used without further purification. Two kinds of natural water samples were individually obtained from Brazos River (N 30°42′33″, E 96°28′5″, College Station, Texas) and Lake Bryan (N 30°33′30″, E 96°25′25″, Bryan, Texas). […] These real water samples were filtered through 0.45 μm hydrophilic PVDF membrane to remove the insoluble particles before spiking the contaminant mixtures (1.0 μM for each compound). 20.0 mM borate buffer was used to stabilize the solution pH of the real waters at 8.00±0.04. All the other solutions were prepared using the ultrapure water (resistivity >18 MΩ cm^−1).
(§2) Experiments were conducted in a series of 100 mL glass jars under constant stirring rate (400 rpm) with a magnetic stirrer. Oxidation of each contaminant or their mixtures by Fe^VI with or without S2O3^2− was initiated by mixing equal solution volumes of 10 mL, and the final reaction solutions were kept at 8.00±0.04. The concentration of Fe^VI was maintained at 100.0 μM, and the ratios of [S2O3^2−]:[Fe^VI] in the system were varied from 0 to 5.0 for aqueous removal of TMP (5.0 μM). […] After 30 seconds of oxidation, 20.0 μL NH2OH solution (1 M) was added to quench the reactions. Samples were transferred into high performance liquid chromatography (HPLC) vials, and were subsequently analyzed using the HPLC method. Similar experiments using TMP as a target contaminant were also performed by replacing Fe^VI with Mn^VII or chlorine under the same conditions.

[2] = Elimination of six pharmaceuticals by Fe^VI—S2O3^2− in lake water (Lake Bryan); format: physicochemical; settings: mixture 1.0 μM each, [S2O3^2−]:[Fe^VI] 0.125, Fe^VI 150.0 μM, pH 8.0, 30 seconds
Procedure: (§3) The contaminants are: carbamazepine (CMZ), diclofenac (DCF), enrofloxacin (ENR), propranolol (PPN), sulfadimethoxine (SMX), and trimethoprim (TMP). Experimental conditions: [Each contaminant]0 in mixture of samples=1.0 μM, [Fe^VI]0:[Total contaminants]=25:1, [S2O3^2−]0:[Fe^VI]0=0.125, [Fe^VI]0=150.0 μM, [S2O3^2−]0=18.75 μM, pH=8.00±0.05, reaction time=30 s).
as §1
as §2, with “conditions. All experiments were carried out at room temperature, and were at least in triplicates.” for “conditions.”
For the chromatographic separation of six contaminant mixtures (CMZ, DCF, ENR, PPN, SMX, and TMP), a solvent gradient method was used with flow rate of 0.8 mL/min. This method started with 35% B (0-7.5 min), followed by 35% B to 55% B (7.5-10.5 min), 55% B to 70% B (10.5-15.5 min), 70% B to 90% B (15.5-18.5 min), 90% B (18.5-25.0 min), 90% B to 35% B (25.0-25.5 min) and post-equilibration at 35% B (25.5-33.0 min).

[3] = Elimination of six pharmaceuticals by Fe^VI—S2O3^2− in river water (Brazos River); format: physicochemical; settings: mixture 1.0 μM each, [S2O3^2−]:[Fe^VI] 0.125, Fe^VI 150.0 μM, pH 8.0, 30 seconds
Procedure: as §3
The stock solutions of these contaminants (10.0 μM) were prepared in 10.0 mM Na2HPO4, and diluted using the same buffer solution before the removal experiments. Potassium ferrate (K2FeO4, purity >90%) was prepared using a wet chemical synthesis method. Solutions of Fe^VI were prepared by adding K2FeO4 powders to 5.0 mM Na2HPO4/1.0 mM Na2B4O7.10H2O buffer solution. The concentrations of Fe^VI were quantitatively measured using an UV-visible spectrometer at a wavelength of 510 nm with a molar absorption coefficient of ε510 nm=1150 M^−1 cm^−1: The pH value of the contaminant solutions was adjusted to 7.50 via the addition of diluted H3PO4 before mixing with Fe^VI solution to achieve the desired reaction pH at 8.00±0.04. […] No test contaminants were detected in these waters, and the basic physico-chemical parameters are pH, 8.36, UV254, 0.071 and UV400, 0.006 for river water; and pH, 9.43, UV254, 0.202, and UV400, 0.017 for lake water. […]

[4] = pH 8.0; cited from earlier work

| Compound | partial oxidation by Fe^VI without S2O3^2− [1] [%] | removal by Fe^VI—S2O3^2− in lake water [2] | removal by Fe^VI—S2O3^2− in river water [3] | k, reactivity of Fe^VI with DMSO [4] | oxidation of TMP by Fe^VI—S2O3^2− ([1]; molar ratio [S2O3^2−]:[Fe^VI] 0.125, TMP 5.0 μM, Fe(VI) 100.0 μM, pH 8.0, 30 seconds) [%] | elimination of TMP by Fe^VI—S2O3^2− ([1]; molar ratio [S2O3^2−]:[Fe^VI] 5.0, TMP 5.0 μM, Fe(VI) 100.0 μM, pH 8.0, 30 seconds) | oxidation of TMP by Fe^VI ([1]; without S2O3^2−, TMP 5.0 μM, Fe(VI) 100.0 μM, pH 8.0, quenched after 30 seconds, oxygenated) |
| --- | --- | --- | --- | --- | --- | --- | --- |
| CC(C)NCC(O)COc1cccc2ccccc12 (stereo not drawn) [PPN, Propranolol] | 32.46 | about 80% | – | – | – | – | – |
| NC(=O)N1c2ccccc2C=Cc2ccccc21 [CMZ, Carbamazepine] | 25.11 | about 50% | about 80% | – | – | – | – |
| Potassium ferrate [Fe^VI] | – | – | – | about 1 M^−1 s^−1 | – | – | – |
| COc1cc(NS(=O)(=O)c2ccc(N)cc2)nc(OC)n1 [SMX, Sulfadimethoxine] | 47.27 | about 80% | – | – | – | – | – |
| O=C(O)Cc1ccccc1Nc1c(Cl)cccc1Cl [DCF, Diclofenac] | 20.85 | about 80% | – | – | – | – | – |
| CCN1CCN(c2cc3c(cc2F)c(=O)c(C(=O)O)cn3C2CC2)CC1 [ENR, Enrofloxacin] | 41.02 | about 50% | about 80% | – | – | – | – |
| COc1cc(Cc2cnc(N)nc2N)cc(OC)c1OC [TMP, Trimethoprim] | 22.04 | about 80% | – | – | 100 | about 4% | about 16% |
